The results in this text go back to US20240390301A1, “COMBINATIONS OF PERIPHERAL 5-HT2A RECEPTOR ANTAGONISTS AND CENTRAL 5-HT2A RECEPTOR AGONISTS” (priority 2021, published 2024).

Each structure is given as a SMILES string. Where two headings read alike, the source gives them in different places.

Series [1] addresses T1, 5-HT2C receptor (Homo sapiens, UniProt P28335).
T1 construct: WuXi AppTec (Hong Kong) Limited (contract laboratory that ran the assay)
T1 sequence (P28335 33-458): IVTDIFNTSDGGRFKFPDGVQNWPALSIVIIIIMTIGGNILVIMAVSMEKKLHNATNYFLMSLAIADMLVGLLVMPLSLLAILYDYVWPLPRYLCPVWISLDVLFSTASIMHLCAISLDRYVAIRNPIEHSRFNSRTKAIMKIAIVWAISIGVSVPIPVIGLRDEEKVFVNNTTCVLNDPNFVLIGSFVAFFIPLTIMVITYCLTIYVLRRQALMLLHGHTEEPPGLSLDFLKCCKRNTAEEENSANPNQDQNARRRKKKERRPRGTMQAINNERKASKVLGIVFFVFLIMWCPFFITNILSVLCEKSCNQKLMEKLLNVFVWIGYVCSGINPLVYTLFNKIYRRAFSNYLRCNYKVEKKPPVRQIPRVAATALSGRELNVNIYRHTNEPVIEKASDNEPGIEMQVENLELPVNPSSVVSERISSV
Nature of the series: biochemical. It is filed as binding.

The nature of series [2]: in vivo. It is filed as in vivo, rat. The method, then:
The ratio of free brain concentration to free plasma concentration was calculated at 0.167 h and 0.5 h post administration for each compound using the data presented in the above examples and the following formula.
A smaller value for the free brain: free plasma ratio indicates greater peripheral restriction and therefore, better suitability for the methods of the present disclosure.

For series [3] the following is noted: Method 2: 3 times diluted homogenate, 37° C. The method, then:
Method 1. Pooled frozen rat brain homogenate was thawed in a water bath at 37° C. prior to the experiment. Using an Apricot automation workstation, 98 μL/well of blank brain homogenate or 100 mM PBS were added to all 96-well reaction plates (Blank, T0, T10, T30, T60, and T120). […] All reaction plates containing mixtures of compound and brain homogenate were incubated at 37° C. in a water bath for up to 120 minutes. At the end of incubation, 500 uL of stop solution (200 ng/mL tolbutamide and 200 ng/mL labetalol in ACN) was added to precipitate protein and mixed thoroughly for 20 minutes at 4° C. After centrifugation at 4,000 rpm and 4° C. for 20 minutes, an Apricot automation workstation was used to transfer 150 μL of supernatant from each reaction plate to its corresponding bioanaylsis plate, which was shaken for 10 minutes prior to LC-MS/MS analysis.
Method 2. Rat brain tissue homogenate samples were prepared by diluting one volume of whole rat brain tissue with two volumes of dialysis buffer (phosphate buffered saline pH 7.4-0.1 M sodium phosphate and 0.15 M sodium chloride) to yield 3 times diluted homogenate. Test compounds were spiked into 400 μL aliquots (n=3) of rat brain homogenate and the resulting mixtures were incubated at 37° C. […] An aliquot (100 μL) of each sample was transferred to a 96-well deep plate and analyzed by LC-MS/MS.

Series [4] is described as follows: Rat plasma stability. It is filed as in vitro ADME. The conditions noted are these: Method 2: 5 μM, 37° C. The protocol:
The results were used to confirm that the plasma protein binding results were not confounded by poor plasma stability.
Method 1. […] Plasma was centrifuged at 4,000 rpm for 5 min and any clots were remove.
Method 2. […]

Series [5] is described as follows: in vivo. The conditions noted are these: metabolite after 10 mg/kg SC of parent (sarpogrelate or Compound 14a). The method, then:
The pharmacokinetics of peripheral 5-HT2A antagonists were studied in the plasma (Tables 11 and 12) and brains (Table 13 and 14) of rats after subcutaneous (SC) dosing. The results were used to interpret the in vivo pharmacological results.
Animals. Male Sprague Dawley rats, aged 8-12 weeks. were used in these studies. Four rats were housed in each cage. […] Temperature and humidity were recorded by an auto-controlled data logger system. All animals were provided laboratory rodent diet and were fasted for 4 h pre-dose and 2 h post-dose. Reverse osmosis water treated with ultraviolet light was provided ad libitum. Animals were randomly assigned to treatment groups.
Drugs and Drug Administration. Test compounds were prepared as described above or commercially obtained. They were administered subcutaneously (SC) at a dose of 1 or 10 mg/kg (as indicated, calculated based on the free base) and at a volume of 5 mL/kg body weight.
Sample Collection and Bioanalysis. […] SC. […] For both studies, immediately after blood collection, plasma was harvested by centrifugation at 4,000 rpm for 10 min at 4° C. and samples were stored at −70±10° C. until bioanalysis. Following blood collection, animals were immediately sacrificed, the abdominal vena-cava was cut open, and the whole body was perfused from the heart using 10 mL of normal saline, and brain samples were collected from all animals. After isolation, brain samples were rinsed three times in ice-cold normal saline (for 5-10 seconds/rinse using ˜5-10 mL normal saline in disposable petri dish for each rinse) and dried on blotting paper. Brain samples were homogenized using ice-cold phosphate-buffered saline (pH 7.4). Total homogenate volume was three times the tissue weight. All homogenates were stored at −70±10° C. until bioanalysis. For bioanalysis, 25 μL aliquots of plasma/brain study samples or spiked plasma/brain calibration standards were added to individual pre-labeled micro-centrifuge tubes followed by 100 μL of an internal standard solution (glipizide, 500 ng/ml in acetonitrile) except for blanks, where 100 μL of acetonitrile was added. Samples were vortexed for 5 minutes and then centrifuged for 10 minutes at 4,000 rpm at 4° C. Following centrifugation, 100 μL of each clear supernatant was transferred to a 96-well plate and analyzed with a fit-for-purpose LC-MS/MS method, with authentic samples of each analyte used for calibration and identification.

Series [6] in a line: Rat plasma protein binding (equilibrium dialysis). The protocol:
Method 1. Aliquots of 50 μL loading matrix containing test compound (2 μM final incubation concentration) or control compound in triplicate were transferred to a Sample Collection Plate. The samples were matched with opposite blank buffer to obtain a final volume of 100 μL, with a volume ratio of matrix: Dialysis Buffer of 1:1 (v:v) in each well. Stop solution (200 ng/ml tolbutamide and 200 ng/mL labetalol in ACN) was added to these TO samples of test compound and control compound. The plate was sealed and shaken at 800 rpm for 10 min. An aliquot of 100 μL of the loading matrix containing test compound or control compound was transferred to the donor side of each dialysis well in triplicate and 100 μL of the Dialysis Buffer was loaded to the receiver side of the well. Then the plate was rotated at approximately 100 rpm in a humidified incubator with 5% CO2 at 37±1° C. for 4 hours. At the end of the dialysis, aliquots of 50 μL samples from the buffer side and matrix side of the dialysis device were taken into new 96-well plates (Sample Collection Plates). An equal volume of opposite blank matrix (buffer or matrix) in each sample was added to reach a final volume of 100 μL, with volume ratio of matrix: Dialysis Buffer of 1:1 (v:v) in each well. All samples were further processed by protein precipitation before LC-MS/MS analysis.
Method 2. Aliquots (200 μL) of positive controls and test compounds at 5 μM (triplicates) were separately added to the plasma chamber and […] of phosphate buffered saline (pH 7.4) was added to the buffer chamber of the inserts. After sealing the rapid equilibrium dialysis (RED) device with an adhesive film, dialysis was performed in an incubator at 37° C. with shaking at 100 RPM for 4 hours. Aliquots (50 μL) of warfarin and test compounds were added to four 0.5 mL micro fuse tubes. Two aliquots were frozen immediately (0-minute sample). The other two aliquots were incubated at 37° C. for 4 hours along with the RED device. Following dialysis, an aliquot of 50 μL was removed from each well (both plasma and buffer side) and diluted with an equal volume of opposite matrix (dialyzed with the other matrix) to nullify the matrix effect. Similarly, 50 μL of buffer was added to recovery and stability samples. An aliquot of 100 μL was used for LC-MS/MS analysis following protein precipitation with ACN containing internal standard.

The target in series [7] is T2, 5-HT2A receptor (Homo sapiens, UniProt P28223).
T2 construct: WuXi AppTec (Hong Kong) Limited (contract laboratory that ran the assay)
T2 sequence (P28223 whole entry): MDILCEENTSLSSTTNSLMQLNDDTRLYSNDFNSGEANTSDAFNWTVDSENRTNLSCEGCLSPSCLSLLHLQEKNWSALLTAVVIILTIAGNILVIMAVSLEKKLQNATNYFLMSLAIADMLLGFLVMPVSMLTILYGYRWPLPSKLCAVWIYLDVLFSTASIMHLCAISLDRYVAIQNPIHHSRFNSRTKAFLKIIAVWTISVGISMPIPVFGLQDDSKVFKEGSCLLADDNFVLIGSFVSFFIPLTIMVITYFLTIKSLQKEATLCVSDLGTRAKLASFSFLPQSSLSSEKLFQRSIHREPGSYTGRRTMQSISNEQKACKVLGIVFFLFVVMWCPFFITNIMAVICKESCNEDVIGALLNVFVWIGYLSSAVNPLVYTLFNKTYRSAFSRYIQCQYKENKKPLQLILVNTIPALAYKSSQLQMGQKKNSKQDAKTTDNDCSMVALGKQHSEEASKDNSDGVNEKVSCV
Nature of the series: 5-HT2A radioligand binding with [3H]ketanserin. The method, then:
The binding affinities of key peripheral 5-HT2A receptor antagonists, as well as reference 5-HT2A agonists, at the ketanserin binding site of the 5-HT2A receptor and the mesulergine binding site of the 5-HT2C receptor were determined in radioligand binding experiments.
Method. Affinity of the test compounds for the 5-HT2A and 5-HT2C receptors was determined in radioligand binding experiments with [^3H] ketanserin and [^3H] mesulergine, respectively, by WuXi AppTec (Hong Kong) Limited, using methods adapted from the literature and under conditions described in Table 1.

The nature of series [8]: in vitro. Set-up: fraction unbound at 4 h: dose or concentration left out as unconfirmed. The conditions noted are these: rat, brain homogenate. The method, then: Various putative peripheral 5-HT2A receptor antagonists were tested for binding to rat brain homogenate via equilibrium dialysis, with the results summarized in Table 7.
Method 1. Rat brain homogenate was thawed in a water bath at room temperature and then incubated at 37° C. for 10 min before use. Aliquots of 50 μL of loading matrix containing test compound (2 μM final incubation concentration) or control compound in triplicate were transferred to a Sample Collection Plate. The samples were matched with opposite blank buffer to obtain a final volume of 100 μL with a volume ratio of matrix: Dialysis Buffer of 1:1 (v:v) in each well. The stop solution (200 ng/mL tolbutamide and 200 ng/ml labetalol in ACN) was immediately added to these T0 samples of test compound and control compound. The plate was sealed and shaken at 800 rpm for 10 min. T0 samples were stored at 2-8° C. pending further processing along with other post-dialysis samples. An aliquot of 100 μL of the loading matrix containing test compound or control compound was transferred to the donor side of each dialysis well in triplicate and 100 μL of the Dialysis Buffer was loaded to the receiver side of the well. Then the plate was rotated at approximately 100 rpm in a humidified incubator with 5% CO2 at 37±1° C. for 4 hours. At the end of the dialysis. aliquots of 50 μL from the buffer side and matrix side of the dialysis device were taken into new 96-well plates (Sample Collection Plates). An equal volume of opposite blank matrix (buffer or matrix) in each sample was added to reach a final volume of 100 μL, with a volume ratio of matrix: Dialysis Buffer of 1:1 (v:v) in each well. All samples were further processed by protein precipitation before LC-MS/MS analysis.
Method 2. Aliquots (200 μL) of test compounds and positive controls at […] in rat brain homogenate (triplicates) were added to the rapid equilibrium dialysis (RED) chamber of dialysis inserts. A 350 μL aliquot of dialysis buffer was added to the buffer chamber of the inserts. After sealing the RED device with an adhesive film, dialysis was conducted at 37° C. with shaking at 100 RPM for 4 hours. Following dialysis, an aliquot of 50 μL was removed from each well (brain homogenate and buffer) and diluted with an equal volume of opposite matrix to nullify the matrix effect. Similarly, buffer was added to recovery and stability samples. An aliquot of 100 μL was used for LC-MS/MS analysis following protein precipitation with ACN containing internal standard.

Setting [9] is: 10 mg/kg PK data, quantified as metabolite in PK studies of sarpogrelate and Compound 14a.
Setting [10] is: HEK293 stable cell line, 2 nM [3H]mesulergine, 1 h, 25° C., read-out: 5-HT2C Ki (nM) ([3H]mesulergine).
[11] abbreviates: HEK293 stable cell line, 1 nM [3H]ketanserin, 1 h, 25° C., read-out: 5-HT2A Ki (nM) ([3H]ketanserin).

One may read the Ki as a measure of affinity in units of concentration, obtained from inhibition or displacement. In general, fraction unbound refers to free concentration divided by total concentration.

As for `COc1cc(CC(C)N)c(OC)cc1I` (stereo not drawn) [DOI, 4-iodo-2,5-dimethoxyamphetamine], the Ki in series [1] was 70 nM.

Regarding `COc1cccc(CCc2ccccc2OCC(O)CN(C)C)c1` (stereo not drawn) [sarpogrelate M1], in series [2] (setting [9]), the “Free Brain:Free Plasma (0.167 h), metabolite” value is listed as 0.52 and the “Free Brain:Free Plasma (0.5 h), metabolite” value came to 1.31. For the same compound, the “Peripheral restriction / brain penetration” value in series [2] (from free brain:free plasma ratios) was “substantial brain penetration”. In addition, the “% Remaining (120 minutes), rat brain homogenate” value in series [3] was 84%. Further, the “% Remaining (120 minutes), rat plasma” value in series [4] came to 94%. Moreover, the “Mean brain concentration 0.167 h (ng/g), analyzed as metabolite” value in series [5] (0.167 h) is 32.7 ng/g. Further, in series [5] (0.5 h), the “Mean brain concentration 0.5 h (ng/g), analyzed as metabolite” value is reported as 97.4 ng/g. Further, in series [5] (plasma, 0.167 h), the “Mean plasma concentration 0.167 h (ng/mL), analyzed as metabolite” value worked out at 54.1 ng/mL. For the same compound, in series [5] (plasma, 0.5 h), the “Mean plasma concentration 0.5 h (ng/mL), analyzed as metabolite” value is 63.6 ng/mL. Further, the “Mean % bound (rat plasma protein binding)” value in series [6] (Method 2: RED, 5 μM, 4 hours, 37° C.) is on record as 97.2%.

For the compound `CCN(C)CCc1c[nH]c2ccc(F)cc12` [Compound 5-F-MET, 5-fluoro-N-methyl-N-ethyltryptamine], the Ki in series [7] turned out to be 140 nM; in series [1] (setting [10]) it was 59 nM.

`CCN(C)CCc1c[nH]c2cccc(O)c12` [Compound 4-HO-MET, 4-hydroxy-N-methyl-N-ethyltryptamine] yielded a Ki in series [7] of 106 nM.

With `CC(C)COc1ccc(CNC(=O)N(Cc2ccc(F)cc2)C2CCNCC2)cc1.Cl` [Compound 7, 1-(4-fluorobenzyl)-3-(4-isobutoxybenzyl)-1-(piperidin-4-yl)urea hydrochloride], the “% Remaining (120 minutes), rat brain homogenate” value in series [3] was found to be 69%. Also, in series [8], the unbound share (fraction unbound) at 4 h is 0.002. Further, in series [4], the “% Remaining (120 minutes), rat plasma” value amounted to 96%. Besides, the “Mean brain concentration 0.167 h (ng/g), analyzed as metabolite” value in series [5] (0.167 h) is “BLQ”. The “Mean brain concentration 0.5 h (ng/g), analyzed as metabolite” value in series [5] (0.5 h) is recorded as “BLQ”. The same compound showed a fraction unbound at 4 h, 5 μM in series [6] (rat, plasma, pH 7.4) of 0.038.

For `COc1cc(CCN)cc(OC)c1OC` [mescaline], the figures for the Ki in series [7] (setting [11]) and in series [1] (setting [10]) were 17400 nM and greater than 1880 nM, respectively.

Turning to `CCCc1cc(OC)c(CC(C)N)cc1OC` (stereo not drawn) [DOPR, 2,5-dimethoxy-4-propylamphetamine], the Ki in series [7] (setting [11]) is 17.6 nM; in series [1] (setting [10]) it was 16.6 nM.
